From the NIST ThermoML archive (doi:10.1021/acs.jced.8b00509)

Assay: mn = molality of the nth substance listed, in mol/kg
Conditions: 100 kPa, Liquid; for viscosity: Capillary tube (Ostwald / Ubbelohde) method; for speed of sound: Frequency=3 MHz, Single path-length method; for mass density: Vibrating tube method

C[C@H](CCC(=O)[O-])[C@H]1CC[C@H]2[C@@H]3CC[C@@H]4C[C@H](O)CC[C@]4(C)[C@H]3C[C@H](O)[C@]12C.[Na+] [sodium deoxycholate] + O
Conditions	mass density [kg/m3]	speed of sound [m/s]	viscosity [mPa·s]
293.15 K, m1 = 0.001	998.38	1483.7	1.003
293.15 K, m1 = 0.002	998.49	1484.1	1.004
293.15 K, m1 = 0.003	998.58	1484.5	1.006
293.15 K, m1 = 0.004	998.67	1484.7	1.009
293.15 K, m1 = 0.005	998.75	1484.9	1.014
293.15 K, m1 = 0.006	998.83	1485.2	1.027
293.15 K, m1 = 0.007	998.92	1485.4	1.036
293.15 K, m1 = 0.008	999.01	1485.6	1.04
293.15 K, m1 = 0.009	999.11	1485.8	1.045
293.15 K, m1 = 0.01	999.21	1486	1.047
293.15 K, m1 = 0.011	999.32	1486.2	1.05
293.15 K, m1 = 0.012	999.4	1486.4	1.051
298.15 K, m1 = 0.001	997.22	1497.4	0.892
298.15 K, m1 = 0.002	997.31	1497.6	0.893
298.15 K, m1 = 0.003	997.39	1497.9	0.894
298.15 K, m1 = 0.004	997.48	1498.1	0.897
298.15 K, m1 = 0.005	997.56	1498.3	0.902
298.15 K, m1 = 0.006	997.65	1498.6	0.915
298.15 K, m1 = 0.007	997.73	1498.8	0.924
298.15 K, m1 = 0.008	997.83	1499	0.928
298.15 K, m1 = 0.009	998.01	1499.3	0.932
298.15 K, m1 = 0.01	998.11	1499.5	0.934
298.15 K, m1 = 0.011	998.2	1499.7	0.937
298.15 K, m1 = 0.012	998.2	1499.9	0.938
303.15 K, m1 = 0.001	995.81	1509.6	0.799
303.15 K, m1 = 0.002	995.91	1509.8	0.8
303.15 K, m1 = 0.003	995.98	1510	0.801
303.15 K, m1 = 0.004	996.07	1510.2	0.804
303.15 K, m1 = 0.005	996.14	1510.4	0.809
303.15 K, m1 = 0.006	996.22	1510.7	0.822
303.15 K, m1 = 0.007	996.3	1510.9	0.83
303.15 K, m1 = 0.008	996.39	1511.2	0.834
303.15 K, m1 = 0.009	996.48	1511.4	0.839
303.15 K, m1 = 0.01	996.58	1511.6	0.841
303.15 K, m1 = 0.011	996.66	1511.9	0.843
303.15 K, m1 = 0.012	996.75	1512	0.846
308.15 K, m1 = 0.001	994.18	1520.1	0.72
308.15 K, m1 = 0.002	994.27	1520.4	0.721
308.15 K, m1 = 0.003	994.35	1520.6	0.722
308.15 K, m1 = 0.004	994.44	1520.8	0.726
308.15 K, m1 = 0.005	994.52	1521.2	0.73
308.15 K, m1 = 0.006	994.59	1521.5	0.743
308.15 K, m1 = 0.007	994.68	1521.7	0.752
308.15 K, m1 = 0.008	994.77	1522	0.756
308.15 K, m1 = 0.009	994.84	1522.2	0.76
308.15 K, m1 = 0.01	994.93	1522.4	0.763
308.15 K, m1 = 0.011	995.02	1522.2	0.764
308.15 K, m1 = 0.012	995.1	1522.4	0.766
313.15 K, m1 = 0.001	992.3	1529.2	0.654
313.15 K, m1 = 0.002	992.45	1529.4	0.655
313.15 K, m1 = 0.003	992.53	1529.6	0.657
313.15 K, m1 = 0.004	992.61	1529.8	0.659
313.15 K, m1 = 0.005	992.69	1529.9	0.664
313.15 K, m1 = 0.006	992.76	1530.1	0.678
313.15 K, m1 = 0.007	992.84	1530.3	0.686
313.15 K, m1 = 0.008	992.93	1530.5	0.69
313.15 K, m1 = 0.009	993.01	1530.7	0.694
313.15 K, m1 = 0.01	993.1	1530.9	0.695
313.15 K, m1 = 0.011	993.2	1531	0.699
313.15 K, m1 = 0.012	993.28	1531.2	0.699
